Reference: the supplement of paper PMC10307832

What was measured:
Assay in all cases: relative viability (nuclei count vs DMSO), 5 days (fraction); higher = more cells survive
AZD8055 + OSI-027 = compound: COc1ccc(-c2ccc3c(N4CCOC[C@@H]4C)nc(N4CCOC[C@@H]4C)nc3n2)cc1CO [AZD8055] + COc1cccc2cc(-c3nc([C@H]4CC[C@H](C(=O)O)CC4)n4ncnc(N)c34)[nH]c12 [OSI-027] (partner 0.5 µM)
How it was run: (§1)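 One day after seeding in 1536-well plates, lung cancer cell lines were dosed by pin tool. Dosing was either single-drug or a fixed anchor-drug dose plus five library-drug doses (not always all listed) in √10 steps. After 5 days, nuclei were stained in one fix-and-stain step and counted on 4× images, and relative viability is the nuclei count of treated wells over that of vehicle wells, given as the median of duplicate plates.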

AZD8055 + Lapatinib = compound: COc1ccc(-c2ccc3c(N4CCOC[C@@H]4C)nc(N4CCOC[C@@H]4C)nc3n2)cc1CO [AZD8055] + CS(=O)(=O)CCNCc1ccc(-c2ccc3ncnc(Nc4ccc(OCc5cccc(F)c5)c(Cl)c4)c3c2)o1 [Lapatinib] (partner 2 µM)
How it was run: as §1

AZD8055 + Linsitinib = compound: COc1ccc(-c2ccc3c(N4CCOC[C@@H]4C)nc(N4CCOC[C@@H]4C)nc3n2)cc1CO [AZD8055] + C[C@]1(O)C[C@@H](c2nc(-c3ccc4ccc(-c5ccccc5)nc4c3)c3c(N)nccn32)C1 [Linsitinib] (partner 1 µM)
How it was run: as §1

AZD8055 + Alpelisib = compound: COc1ccc(-c2ccc3c(N4CCOC[C@@H]4C)nc(N4CCOC[C@@H]4C)nc3n2)cc1CO [AZD8055] + Cc1nc(NC(=O)N2CCC[C@H]2C(N)=O)sc1-c1ccnc(C(C)(C)C(F)(F)F)c1 [Alpelisib] (partner 2 µM)
How it was run: as §1

Cell Line	relative viability (AZD8055 + OSI-027; first compound 0.01 µM)	relative viability (AZD8055 + OSI-027; first compound 0.03162 µM)	relative viability (AZD8055 + OSI-027; first compound 0.1 µM)	relative viability (AZD8055 + OSI-027; first compound 0.3162 µM)	relative viability (AZD8055 + OSI-027; first compound 1 µM)	relative viability (AZD8055 + Lapatinib; first compound 0.01 µM)	relative viability (AZD8055 + Lapatinib; first compound 0.03162 µM)	relative viability (AZD8055 + Lapatinib; first compound 0.1 µM)	relative viability (AZD8055 + Lapatinib; first compound 0.3162 µM)	relative viability (AZD8055 + Lapatinib; first compound 1 µM)	relative viability (AZD8055 + Linsitinib; first compound 0.01 µM)	relative viability (AZD8055 + Linsitinib; first compound 0.03162 µM)	relative viability (AZD8055 + Linsitinib; first compound 0.1 µM)	relative viability (AZD8055 + Linsitinib; first compound 0.3162 µM)	relative viability (AZD8055 + Linsitinib; first compound 1 µM)	relative viability (AZD8055 + Alpelisib; first compound 0.01 µM)	relative viability (AZD8055 + Alpelisib; first compound 0.03162 µM)	relative viability (AZD8055 + Alpelisib; first compound 0.1 µM)	relative viability (AZD8055 + Alpelisib; first compound 0.3162 µM)	relative viability (AZD8055 + Alpelisib; first compound 1 µM)
HCC-44	0.6	0.526	0.483	0.267	0.308	1.09	0.997	0.769	0.565	0.443	0.565	0.506	0.298	0.198	0.226	0.573	0.507	0.417	0.271	0.295
HCC-78	0.415	0.392	0.326	0.352	0.366	0.934	0.547	0.406	0.225	0.217	0.442	0.355	0.222	0.195	0.177	0.303	0.204	0.181	0.217	0.221
HCC-366	1.08	1.01	0.845	0.437	0.288	1.12	0.93	0.864	0.27	0.2	0.539	0.245	0.218	0.0598	0.0927	0.479	0.243	0.169	0.0661	0.07
HCC-827	0.798	0.746	0.809	0.604	0.641	0.212	0.201	0.193	0.141	0.21	0.97	0.971	0.932	0.794	0.469	0.974	0.863	0.736	0.305	0.254
HOP-62	0.902	0.795	0.87	0.585	0.453	1.14	0.908	0.962	0.369	0.316	1.09	0.789	0.869	0.362	0.266	1.26	1.18	0.667	0.434	0.26
IA-LM	–	–	–	–	–	0.802	0.319	0.216	0.132	0.112	0.876	0.611	0.252	0.0793	0.118	0.749	0.485	0.212	0.0977	0.0895
LC-2-ad	0.937	0.864	0.706	0.618	0.523	1.1	0.987	0.924	0.683	0.456	0.852	0.803	0.56	0.414	0.397	0.841	0.827	0.697	0.42	0.402
LCLC-97TM1	0.502	0.472	0.577	0.422	0.415	0.758	0.815	0.639	0.157	0.181	0.182	0.143	0.13	0.122	0.139	0.233	0.179	0.135	0.14	0.135
LCLC-103H	0.444	0.437	0.44	0.356	0.32	–	–	–	–	–	1	0.929	0.723	0.467	0.481	0.956	0.88	0.774	0.538	0.422
LK-2	0.22	0.242	0.209	0.166	0.186	0.801	0.55	0.47	0.198	0.17	0.334	0.28	0.249	0.164	0.238	1.03	0.658	0.447	0.331	0.265
LOU-NH91	0.775	0.797	0.66	0.569	0.556	0.68	0.679	0.56	0.484	0.548	0.889	0.835	0.629	0.585	0.524	0.705	0.669	0.556	0.537	0.511
LU99A	0.297	0.311	0.322	0.264	0.254	0.824	0.458	0.329	0.218	0.228	0.316	0.306	0.196	0.203	0.184	0.32	0.261	0.158	0.189	0.228
NCI-H441	0.676	0.647	0.476	0.408	0.339	–	–	–	–	–	0.515	0.337	0.346	0.203	0.33	0.678	0.42	0.444	0.331	0.315
NCI-H522	0.698	0.757	0.803	0.67	0.632	–	–	–	–	–	–	–	–	–	–	–	–	–	–	–
NCI-H1299	–	–	–	–	–	0.974	1.07	0.98	0.758	0.439	1.08	0.948	0.798	0.436	0.295	1.17	1.04	1.06	0.628	0.468
NCI-H1648	0.27	0.235	0.289	0.234	0.296	–	–	–	–	–	–	–	–	–	–	–	–	–	–	–
NCI-H1650	0.678	0.776	0.484	0.435	0.39	0.767	0.731	0.71	0.452	0.44	–	–	–	–	–	–	–	–	–	–
NCI-H1703	–	–	–	–	–	0.798	0.726	0.879	0.427	0.313	0.514	0.576	0.623	0.102	0.29	0.328	0.297	0.237	0.219	0.318
NCI-H2170	0.665	0.701	0.624	0.386	0.392	0.242	0.231	0.229	0.231	0.228	–	–	–	–	–	0.691	0.623	0.386	0.288	0.252
NCI-H2342	0.598	0.621	0.571	0.529	0.594	–	–	–	–	–	–	–	–	–	–	–	–	–	–	–
SW 900	0.592	0.602	0.536	0.311	0.196	–	–	–	–	–	–	–	–	–	–	–	–	–	–	–
